Measured values as given in patent US6756410B2, “Induction of LDL receptor expression by extracellular-signal regulated kinase, ERK-1/2” (priority 2000, dated 2004).
Entries after “also recorded” stand apart in the source; their conditions may differ.

Legend:
LDL receptor = LDL receptor mRNA expression, Northern blot in HepG2-ΔRaf-1:ER cells; format: cell-based, human
Procedure: Northern blotting was done under identical conditions to measure RNA levels of LDL receptor, SS, and actin genes.
Total RNA was analyzed by Northern blot for measuring LDL receptor mRNA levels.
LDL receptor and SS mRNA levels were determined by Northern blotting. Results shown are indicative of two separate experiments.
Cells either untreated or pretreated with different concentrations of sterols (1, 2 or 5 μg/ml 25-hydroxycholesterol and 10 μg/ml cholesterol) were induced with ICI182,780 (1 μM) for 4 h. Total RNA was subjected to Northern blotting to determine mRNA levels of LDL receptor and squalene synthase.
Total RNA was isolated by the TRIzol reagent (GIBCO-BRL), according to the manufacturer's protocol. RNA was stored under ethanol. Aliquots containing 20 μg RNA were electrophoresed through a 1%-agarose-formaldehyde gel and transferred to a nylon membrane (BioRad) followed by hybridization. Hybridization probes for LDL receptor, actin, and SS, labeled with ^32P, were prepared using the M13 universal primer. Hybridizations were performed at 45° C., and after final washing at 55° C. for 30 min, filters were exposed to Kodak x-ray film. The relative intensities of specific bands were determined densitometrically within the linear range of film on a model 300A laser densitometer (Molecular Dyanamics) using Image Quant software.

Raf-1 kinase = Raf-1 kinase phosphorylation, immunoblot in HepG2-ΔRaf-1:ER cells; format: cell-based, human; details: 30 min pretreatment, then 1 μM ICI182,780
Procedure: Total cell extracts were subjected to immunoblotting using the phosphorylation-independent and phospho-specific Raf-1 kinase antibodies. The same blot was later probed with the phospho-specific p42/44^MAPK antibody.
(§1) Cells were scraped in phosphate-buffered saline (PBS) and centrifuged, and the pellet was resuspended in lysis buffer (50 mM Tris-Cl [pH 7.5], 150 mM NaCl, 10 mM MgCl2, 1 mM dithiothreitol, 10 mM NaF, 0.5 mM Na3VO4, 0.5% Nonidet P-40, 10 μg of aprotinin/ml, and 100 μg of phenylmethylsulfonyl fluoride per ml). Protein concentration was measured by the Bio-Rad protein assay. Protein (30 to 50 μg) was resolved by sodium dodecyl sulfate-polyacrylamide gel electrophoresis (SDS-PAGE) and transferred onto Immobilon P membranes (Millipore). The filter was blocked in 2.5% skim milk with 0.1% Tween 20 in PBS for 2 h followed by incubation with the specific antibody. The following antibodies were used: polyclonal rabbit antibodies against phosphorylation-independent p42/44^MAPK, phospho-specific-p42/44^MAPK, and phospho-specific or phosphorylation-independent Raf-1 kinase. Reactive proteins were detected with horseradish peroxidase-conjugated secondary antibodies and visualized with an ebb enhanced chemiluminescence detection kit (Amersham Pharmacia Biotech).

[1] = tested on: human LDL receptor promoter; experiment: LDL receptor promoter-luciferase reporter (construct A) in HepG2-ΔRaf-1:ER cells; format: cell-based; details: for transcriptional (activating) effect of ICI182,780 on the human LDL receptor promoter in presence of inhibitor: 1 μM ICI182,780, PD98059 50 μM, staurosporine 1 μM, curcumin 20 μM
Procedure: HepG2-ΔRaf-1:ER cells were cotransfected with LDL receptor promoter-luciferase reporter (plasmid A) and β-galactosidase-reporter. After 24 hours, cells were grown in a medium containing 0.2% serum for 12 h, followed by addition of 1 μM ICI182,780 for the last 24 h in the absence or presence of indicated inhibitor. […] Sterols (2 μg/ml 25-hydroxycholesterol and 10 μg/ml cholesterol) were added to examine sensitivity to sterols. After the treatment both luciferase and β-galactosidase activities were measured according to the method previously described (24). The results are presented as means ±S.E. and represent at least three individual experiments.
A human low density lipoprotein receptor promoter-luciferase construct A (24) was used to determine the response of the low density lipoprotein receptor promoter to activation of the p42/44^MAPK pathway. HepG2-ΔRaf-1:ER cells were transfected with 0.6 μg of reporter plasmid and 0.25 μg of SV-βGal plasmid by lipofectamine technique, as described previously (Mehta et al., 1996). Cells were washed after 12 h, and after another 12 h the cells were treated with 1 μM ICI182,780 for 36 h, and the controls were treated with ethanol. PBS-washed cells were harvested in 250 mM Tris-Cl, pH 7.5, and lysed in the lysis buffer. The luciferase activities of the cell lysates were measured according to the manufacture's recommendations (Promega). Luciferase assays were carried out in triplicate. In FIG. 6, the data are shown as means of three experiments and the fold induction represents the difference between the means of the samples with ICI182,780 and that of the control. Luciferase activity was normalized for β-galactosidase activity.
To study the role of serine/threonine protein kinases in the activation of the LDL receptor promoter by p42/44^MAPK, HepG2 cells were transiently transfected with construct A. Sixteen hours after transfection, the cells were treated for 1 h with the indicated inhibitor, and then with ICI182,780 in the continued presence of inhibitor.
Because the primary effect of p42/44^MAPK activation is exerted at the transcriptional levels, it was next determined whether ICI182,780 treatment modulated activity of the low density lipoprotein receptor promoter. A low density lipoprotein receptor promoter/luciferase reporter construct A (Mehta et al., 1996), containing promoter sequences from −273 to +35, was transfected into HepG2-ΔRaf-1:ER cells. Both sets of transfected cells were exposed to ICI182,780 for 36 h, after which luciferase activity was determined.

p42/44^MAPK = experiment: p42/44MAPK phosphorylation, immunoblot with phospho-specific antibody in HepG2-ΔRaf-1:ER cells; format: cell-based, human
Procedure: HepG2 cells were treated with indicated doses of ICI182,780 for 4 hours. Phospho-specific p42/44^MAPK antibody was used to monitor p42/44^MAPK phosphorylation/activation, and phosphorylation-independent p42/44^MAPK antibody was used to measure total p42/44^MAPK protein.
as §1

HepG2-ΔRaf-1:ER cells [2] = experiment: Cell cycle analysis by propidium iodide FACS; format: cell-based, human; details: 1 μM ICI182,780, 18 h and 36 h
Procedure: The percentage of cells in the G1, S and G2 phases of the cell cycle is given for the control and ICI182,780 treated cells.
Cells (5×10^5) were seeded on 100 mm dishes and 2 days later the medium was replaced with medium containing 1 μM ICI182,780. After 18 h and 36 h, attached cells were trypsinized, centrifuged, washed in phosphate-buffered saline, resuspended in 1 ml phosphate-buffered saline, fixed in 1 ml of cold ethanol for overnight at 4° C., centrifuged again, washed once with saline, and resuspended in 0.1% bovine serum albumin containing 50 μg/ml ribonuclease and 50 μg/ml propidium iodide (Sigma), and then analysed in a fluoroscence-activated cell sorter (FACSORT, Becton Dickinson). Data were analysed using the Cellfit program.

p21^Cip1 = experiment: p21Cip protein expression, immunoblot; format: cell-based, human
Procedure: (§2) Cells were cultured in the absence or presence of 1 μM ICI182,780. Equal amounts of total protein (40 μg) were resolved by SDS-PAGE, transferred to Immobilon P membrane and probed with antibodies specific for cyclin A and p21^Cip.
as §1

HepG2-ΔRaf-1:ER cells [3] = experiment: Colony staining (colony formation); format: cell-based, human; details: maintained with ICI182,780; results not shown
Procedure: Cells were seeded at a density of 10,000 cells per 60 mm dish and maintained with or without ICI182,780 for varying periods. Colonies were stained by addition of 0.5 ml methylene blue solution for 30 min followed by washing.

HepG2-ΔRaf-1:ER cells [4] = experiment: Light microscopic examination of cell morphology; format: cell-based; details: 1 μM ICI182,780, 24 h
Procedure: Cells treated with 1 μM of the ICI182,780 for 24 h were examined by optical microscopy. […] Representative photomicrographs of HepG2-ΔRaf-1:ER cells either untreated or treated with ICI182,780 were taken at low and high cell density regions of the cultured plate by using microscope.
The phenotype seen in ICI182,780-treated cells may resemble the situation of terminal differentiation, in which cells (for example, neurons) show differentiation in the absence of DNA replication.

HepG2-ΔRaf-1:ER cells [5] = experiment: DNA synthesis, [3H]thymidine incorporation; format: cell-based, human; details: ICI182,780 0 to 1 μM for 18 h or 1 μM over time
Procedure: Cells in a 24-well dishes were either treated with different ICI182,780 concentrations from 0 to 1 μM for 18 h (top panel) or with 1 μM of ICI182,780 for time periods as indicated in the abscissa of the graph (bottom panel). DNA synthesis was measured by the incorporation of [^3H]thymidine during the final 4 h. Each point represents the mean of three determinations and is representative of at least two independent experiments.
Proliferation was measured with the [^3H]thymidine uptake assay (Amersham), with [^3H]thymidine (1.0 μCi/ml) present in the medium for 4 h prior to harvesting.

HepG2-ΔRaf-1:ER cells [6] = experiment: Growth curves of HepG2-ΔRaf-1:ER cells (cell counting); format: cell-based, human; details: 1 μM ICI182,780
Procedure: (§3) Log-phase cells were seeded at 10^5 cells per 60 mm dish. After 36 h the medium was changed to medium containing either 1 μM ICI182,780 or no ICI182,780. At the indicated times, cells were trypsinized and counted.

cyclin A = experiment: Cyclin A protein expression, immunoblot; format: cell-based, human; details: 1 μM ICI182,780
Procedure: as §2, §1

HepG2 cells = experiment: Growth curves of HepG2 cells (cell counting); format: cell-based, human; details: 1 μM ICI182,780
Procedure: as §3

[7] = 30 min pretreatment, then 1 μM ICI182,780
[8] = clone B, ICI182,780 0 to 1 μM, 4 hours

CN[C@@H]1C[C@H]2O[C@@](C)([C@@H]1OC)n1c3ccccc3c3c4c(c5c6ccccc6n2c5c31)C(=O)NC4 [staurosporine]
ICI182,780-induced LDL receptor expression after staurosporine pretreatment (LDL receptor; [7]): loss of LDL receptor induction
Raf-1 kinase phosphorylation after staurosporine pretreatment (Raf-1 kinase): inhibition of phosphorylation
transcriptional (activating) effect of ICI182,780 on the human LDL receptor promoter in presence of inhibitor [1]: suppressed
ICI182,780-induced p42/44MAPK phosphorylation after staurosporine pretreatment (p42/44^MAPK; [7]): inhibition of phosphorylation

COc1cc(C=CC(=O)CC(=O)C=Cc2ccc(O)c(OC)c2)ccc1O [curcumin, 1,7-bis [4-hydroxy-3-methoxyphenyl]-1,6-heptadiene-3,5-dione]
increase in LDL receptor expression caused by ICI182,780 in presence of curcumin (LDL receptor; 60 μM curcumin, endogenous gene): totally suppressed
time of treatment at which the blocking effect was complete (LDL receptor; curcumin, kinetic studies): 4 to 6 h
transcriptional (activating) effect of ICI182,780 on the human LDL receptor promoter in presence of inhibitor [1]: completely suppressed
ICI182,780-dependent p42/44MAPK activation in presence of curcumin (p42/44^MAPK; curcumin before 1 μM ICI182,780): without affecting

COc1cccc(-c2cc(=O)c3ccccc3o2)c1N [PD98059, 2-(2′-amino-3′-methoxyphenyl)-oxanaphthalene-4-one]
p42/44MAPK induced LDL receptor expression after PD98059 (LDL receptor; PD98059 pretreatment 30 min, then 1 μM ICI182,780): significantly inhibited
transcriptional (activating) effect of ICI182,780 on the human LDL receptor promoter in presence of inhibitor [1]: suppressed
p42/44MAPK phosphorylation and activation after PD98059 (p42/44^MAPK; 20 μM PD98059 for 30 min before ΔRaf-1:ER activation, data not shown): inhibited phosphorylation and activation

C[C@]12CC[C@@H]3c4ccc(O)cc4C[C@@H](CCCCCCCCC[S+]([O-])CCCC(F)(F)C(F)(F)F)[C@H]3[C@@H]1CC[C@@H]2O (some centres unmarked) [ICI182,780]
cell cycle distribution (HepG2-ΔRaf-1:ER cells [2]): modest increase in the fraction of cells found in the G2/M phase with a concomitant decrease in S phase
duration of sustained high p21Cip1 levels (p21^Cip1; 1 μM ICI182,780): at least 24 h
p21Cip1 expression (p21^Cip1; 1 μM ICI182,780, between 30 and 120 min of treatment): strong increase
ability to form colonies (HepG2-ΔRaf-1:ER cells [3]): reduced their ability to form colonies
morphological appearance of treated cells (HepG2-ΔRaf-1:ER cells [4]): larger with neuronal like structures (i.e. filopodia), and less refractile than untreated cells
signs of cell stress or death (HepG2-ΔRaf-1:ER cells [4]): no indication that ICI-treated cells were under stress or dying; also recorded: did not exhibit membrane blebbing and/or increase in the number of rounded and/or detached cells
DNA synthesis ([3H]thymidine incorporation) (HepG2-ΔRaf-1:ER cells [5]): inhibition of DNA synthesis
cell growth of HepG2-ΔRaf-1:ER cells (HepG2-ΔRaf-1:ER cells [6]): arrested the growth
time of maximal induction of LDL receptor expression (LDL receptor; 1 μM ICI182,780, 1 to 16 h): 3 to 4 h
increase in LDL receptor expression (LDL receptor; [8]): dependent on ICI182,780 concentration
lowest concentration at which promoter activation was detected ([1]; construct A): 0.5 µM
increase of luciferase expression driven by the LDL receptor promoter ([1]; construct A (-273 to +35), 1 μM ICI182,780 for 36 h, normalized for β-galactosidase): 4 to 6 fold
luciferase activity, promoterless luciferase vector ([1]; transfected cells containing the promoterless luciferase vector, ICI182,780 treatment): virtually no change in luciferase activity
time at which p42/44MAPK phosphorylation was clearly detected (p42/44^MAPK; 1 μM ICI182,780, 1 to 16 h): 1 h
time of maximal p42/44MAPK phosphorylation response (p42/44^MAPK; 1 μM ICI182,780, 1 to 16 h): 2 h
increase in p42/44MAPK phosphorylation (p42/44^MAPK; [8]): dependent on ICI182,780 concentration
cyclin A protein expression (cyclin A): strong down-regulation
cell growth of HepG2 cells (HepG2 cells): no growth arrest
